Reference: patent publication US8283382B2, “Vitamin K for prevention and treatment of skin rash secondary to anti-EGFR therapy” (Albert Einstein College of Medicine of Yeshiva University, priority 2005, dated 2012)
“Also recorded” adds a separate entry of the source. One block for each molecule: values may come before it.

Assays:
[1] = Matschiner et al., 1972; cited from earlier work
EGFR [2] = target: T1, EGFR (Homo sapiens, UniProt P00533); experiment: Western blot of phosphorylated EGFR in A431 / HN5 cells; assay type: cell-based; conditions: for concentration at which activation of EGFR was seen / activation (phosphorylation) of EGFR: 2 hours exposure; for activation (phosphorylation) of EGFR: concentrations up to 1000 μM; for concentration at which activation was seen, converted to mass concentration: K3: EGFR, Akt and Stat-3, K1: EGFR and Akt
T1 construct: Two human cell lines that overexpress non-mutated EGFR were used; endogenous in cells; host or cells: A431 vulvar carcinoma; HN5 head and neck carcinoma
Experimental: FIG. 1A-1C. Effects of Vitamins K1, K2 and K3 (VK1, VK2, VK3) on the phosphorylation of EGFR (A), AKT (B) and Stat-3 (C) in human A431 vulvar carcinoma cells. […] Cells were exposed to the indicated concentrations of VK1, VK2 and VK3 for 2 hours. Following exposure, cells were washed twice with cold phosphate buffered saline (PBS) solution, and lysed with 50 μl of lysis buffer. Equal amounts of lysate (30 μg of protein) were subjected to a 7.5% or a 12% SDS-PAGE. EGFR, phos-EGFR, AKT, phos-AKT, Stat-3, and phos-Stat-3 were detected by immunoblotting analysis using corresponding antibodies.
FIG. 2. […] After exposure, cells were washed twice with cold PBS solution, and lysed with 50 μl of lysis buffer. Equal amounts of lyaste (30 μg of protein) were subjected to a 7.5% SDS-PAGE. EGFR and phosphorylated EGFR were detected by immunoblotting analysis using corresponding antibodies.
FIG. 4A-4B. […] Cells were exposed to 0.1 mM VK3 for 1 hour. Following exposure, cells were washed three times with cold medium and then reincubated in VK3-free fresh medium with 10% fetal bovine serum for the indicated times. Cells were harvested and lysed with lysis buffer. Equal amounts of cell lysate were subjected on 7.5% SDS-PAGE (A). The total EGFR and phosphorylated EGFR (p-EGFR) were detected by immunoblot analysis using corresponding antibodies. Control (Con) means cells were not exposed to VK3. The relative p-EGFR was expressed as the intensity of p-EGFR bands in each time points measured by a laser densitometry compared with that in control as one (B).
(§1) Two human cell lines that overexpress non-mutated EGFR were used: A431 vulvar carcinoma and HN5 head and neck carcinoma. Cells were exposed to different concentrations of different vitamin K analogs in the presence of one of three EGFR inhibitors: the anti-EGFR monoclonal antibody cetuximab (Erbitux®) and the EGFR tyrosine kinase inhibitors (TKIs) erlotinib (Tarceva®) and gefitinib (Iressa®). Cytotoxicity was assessed by cell counting. Cells were lysed and the effects of different vitamin K analogs on activation of EGFR, the kinase Akt, and Signal Transducer and Activator of Transcription-3 (STAT-3) were assessed by western blot analysis using antibodies for the phosphorylated (activated) forms of EGFR, Akt and Stat-3. […] Vitamins K1, K2, and K3 were purchased from Sigma-Aldrich (St Louis, Mo.). Activation of EGFR, Akt and Stat-3 were assessed in the presence and absence of anti-EGFR treatments of the cells. Activation of EGFR by vitamin K analog was also assessed using mouse skin, which was homogenized and lysed after treatment with the vitamin K analog. Phosphatase activity was determined using pNPP (4-nitrophenyl phosphate disodium) as a substrate.

Akt = experiment: Western blot of phosphorylated Akt in A431 / HN5 cells; assay type: cell-based, human; conditions: for concentration at which activation of Akt was seen / activation (phosphorylation) of Akt: A431 cells, 2 hours exposure; for activation (phosphorylation) of Akt: concentrations up to 1000 μM
Experimental: (§2) FIG. 1A-1C. Effects of Vitamins K1, K2 and K3 (VK1, VK2, VK3) on the phosphorylation of EGFR (A), AKT (B) and Stat-3 (C) in human A431 vulvar carcinoma cells. A431 cells (1×10^6 cells/well) were plated in a 6-well plate, and incubated in RPMI-1640 medium with 10% serum overnight. Cells were exposed to the indicated concentrations of VK1, VK2 and VK3 for 2 hours. Following exposure, cells were washed twice with cold phosphate buffered saline (PBS) solution, and lysed with 50 μl of lysis buffer. Equal amounts of lysate (30 μg of protein) were subjected to a 7.5% or a 12% SDS-PAGE. EGFR, phos-EGFR, AKT, phos-AKT, Stat-3, and phos-Stat-3 were detected by immunoblotting analysis using corresponding antibodies. Vitamin K3 stimulated EGFR, Akt and Stat-3.
(§3) Two human cell lines that overexpress non-mutated EGFR were used: A431 vulvar carcinoma and HN5 head and neck carcinoma. Cells were exposed to different concentrations of different vitamin K analogs in the presence of one of three EGFR inhibitors: the anti-EGFR monoclonal antibody cetuximab (Erbitux®) and the EGFR tyrosine kinase inhibitors (TKIs) erlotinib (Tarceva®) and gefitinib (Iressa®). Cytotoxicity was assessed by cell counting. Cells were lysed and the effects of different vitamin K analogs on activation of EGFR, the kinase Akt, and Signal Transducer and Activator of Transcription-3 (STAT-3) were assessed by western blot analysis using antibodies for the phosphorylated (activated) forms of EGFR, Akt and Stat-3. Polyclonal antibodies of anti-EGFR, anti-phos-EGFR (Tyr1068), anti-AKT, anti-phos-AKT (Ser473), anti-Stat-3, and anti-phos-Stat-3 (Tyr-705) were purchased from Cell Signaling (Beverly, Mass.). Vitamins K1, K2, and K3 were purchased from Sigma-Aldrich (St Louis, Mo.). Activation of EGFR, Akt and Stat-3 were assessed in the presence and absence of anti-EGFR treatments of the cells. Activation of EGFR by vitamin K analog was also assessed using mouse skin, which was homogenized and lysed after treatment with the vitamin K analog. Phosphatase activity was determined using pNPP (4-nitrophenyl phosphate disodium) as a substrate.

[3] = cited from earlier work
phosphatase activity = experiment: Phosphatase activity in A431 cell extracts with pNPP substrate; assay type: cell-based, human
Experimental: FIG. 5. […] A431 cells were exposed to 0.1 mM VK3 for 1 hour. After exposure, cells were washed three times with cold medium and then reincubated in VK3-free medium with 10% fetal bovine serum for the indicated time. Cells were harvested and cell extracts were prepared for the assay of phosphatase activity using pNPP (4-nitrophenyl phosphate disodium) as a substrate. Control (Con) means the phosphatase activity in cells without exposure to VK3. The relative phosphatase activity was expressed as compared with that in control as one. VK3-induced phosphatase inhibition is reversible following removal of VK3.
as §1

Stat-3 = experiment: Western blot of phosphorylated Stat-3 in A431 / HN5 cells; assay type: cell-based, human; conditions: for activation (phosphorylation) of Stat-3: concentrations up to 1000 μM
Experimental: as §2, §3

[4] = system: A431 vulvar carcinoma cells; experiment: Erlotinib-induced cell growth inhibition / cytotoxicity by cell counting; assay type: cell-based, human
Experimental: as §1

EGFR [5] = target: EGFR (Mus musculus, UniProt Q01279); experiment: EGFR phosphorylation in mouse skin tissue (immunoblot)
Sequence of EGFR (Mus musculus, UniProt Q01279) (Q01279 25-1210): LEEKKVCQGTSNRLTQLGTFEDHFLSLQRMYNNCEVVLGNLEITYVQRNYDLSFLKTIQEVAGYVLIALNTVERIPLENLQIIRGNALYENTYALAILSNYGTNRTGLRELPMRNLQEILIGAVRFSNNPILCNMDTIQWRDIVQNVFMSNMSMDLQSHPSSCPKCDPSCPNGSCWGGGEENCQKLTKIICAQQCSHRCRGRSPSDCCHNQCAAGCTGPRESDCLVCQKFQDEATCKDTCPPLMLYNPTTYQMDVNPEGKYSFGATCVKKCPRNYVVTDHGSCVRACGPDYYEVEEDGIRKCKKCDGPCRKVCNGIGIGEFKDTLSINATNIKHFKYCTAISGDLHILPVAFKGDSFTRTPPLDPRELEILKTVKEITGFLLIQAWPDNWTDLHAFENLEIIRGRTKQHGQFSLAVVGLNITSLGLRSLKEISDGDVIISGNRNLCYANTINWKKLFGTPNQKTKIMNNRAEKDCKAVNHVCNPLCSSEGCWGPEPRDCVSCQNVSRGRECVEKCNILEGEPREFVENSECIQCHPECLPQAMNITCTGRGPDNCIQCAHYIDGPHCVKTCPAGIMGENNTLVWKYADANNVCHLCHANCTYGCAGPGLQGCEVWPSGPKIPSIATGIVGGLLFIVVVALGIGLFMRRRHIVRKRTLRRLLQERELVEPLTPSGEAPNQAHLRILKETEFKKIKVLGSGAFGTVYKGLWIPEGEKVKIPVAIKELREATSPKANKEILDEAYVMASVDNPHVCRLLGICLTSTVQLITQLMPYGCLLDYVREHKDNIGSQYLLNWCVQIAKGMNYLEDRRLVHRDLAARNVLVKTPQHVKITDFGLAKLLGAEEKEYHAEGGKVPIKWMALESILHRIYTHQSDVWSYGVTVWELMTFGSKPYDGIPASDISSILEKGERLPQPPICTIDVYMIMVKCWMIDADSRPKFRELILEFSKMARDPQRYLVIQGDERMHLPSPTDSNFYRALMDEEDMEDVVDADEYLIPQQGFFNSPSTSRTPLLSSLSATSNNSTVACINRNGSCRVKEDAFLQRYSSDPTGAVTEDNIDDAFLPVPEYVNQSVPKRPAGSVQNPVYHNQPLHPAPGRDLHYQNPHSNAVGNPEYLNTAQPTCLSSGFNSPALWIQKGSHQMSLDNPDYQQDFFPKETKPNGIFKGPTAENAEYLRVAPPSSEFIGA
Experimental: Effect of Vitamin K3 (menadione) on erlotinib-induced inhibition of EGFR phosphorylation in mouse skin. […] Mice were administrated P.O. daily 50 mg/kg of erlotinib; mouse skin was smeared with VK3 15 mM ethanol solution. After treatment, the mice were sacrificed and skin tissue was taken. 100 mg skin tissue was used for the preparation of tissue extracts. Equal amounts of skin tissue extracts (80 μg of protein) were subjected on a 7.5% SDS-PAGE. Total EGFR and p-EGFR were detected by immunoblot analysis.
Effect of VK3, Cream B and Cream VK on EGFR phosphorylation in mouse skin tissue. The mice were smeared with 30 mM or 100 mM VK3 (in ethanol), or with the same doses of Cream B or Cream VK. Following treatment, mice were sacrificed and skin tissues were taken for the preparation of tissue extracts. Equal amounts of tissue extracts (80 μg of protein) were subjected on a 7.5% of SDS-PAGE. Total EGFR and p-EGFR were detected by immunoblot analysis using polyclonal anti-EGFR and p-EGFR antibodies. Cream B is an over the counter product (Baby Cakes) containing Vitamin K3 according to its label; the concentration is not specified. Cream VK is a 5% Vitamin K cream available over the counter.
The effect of Vitamin K3 was examined in the skin of animals receiving the EGFR TK inhibitor erlotinib 100 mg/kg×10 days (days 1-10). […] The skin of mice was smeared with Vitamin K3 in ethanol (15 mM BID×5 days on days 5 to 10). The effect of Vitamin K3 was compared to that of two over-the-counter skin creams. Cream B (Baby Cakes) is an over-the-counter product containing Vitamin K3 according to its label; the concentration is not specified. Cream VK is a 5% Vitamin K cream available over-the-counter.

T1 sequence (P00533 25-1210): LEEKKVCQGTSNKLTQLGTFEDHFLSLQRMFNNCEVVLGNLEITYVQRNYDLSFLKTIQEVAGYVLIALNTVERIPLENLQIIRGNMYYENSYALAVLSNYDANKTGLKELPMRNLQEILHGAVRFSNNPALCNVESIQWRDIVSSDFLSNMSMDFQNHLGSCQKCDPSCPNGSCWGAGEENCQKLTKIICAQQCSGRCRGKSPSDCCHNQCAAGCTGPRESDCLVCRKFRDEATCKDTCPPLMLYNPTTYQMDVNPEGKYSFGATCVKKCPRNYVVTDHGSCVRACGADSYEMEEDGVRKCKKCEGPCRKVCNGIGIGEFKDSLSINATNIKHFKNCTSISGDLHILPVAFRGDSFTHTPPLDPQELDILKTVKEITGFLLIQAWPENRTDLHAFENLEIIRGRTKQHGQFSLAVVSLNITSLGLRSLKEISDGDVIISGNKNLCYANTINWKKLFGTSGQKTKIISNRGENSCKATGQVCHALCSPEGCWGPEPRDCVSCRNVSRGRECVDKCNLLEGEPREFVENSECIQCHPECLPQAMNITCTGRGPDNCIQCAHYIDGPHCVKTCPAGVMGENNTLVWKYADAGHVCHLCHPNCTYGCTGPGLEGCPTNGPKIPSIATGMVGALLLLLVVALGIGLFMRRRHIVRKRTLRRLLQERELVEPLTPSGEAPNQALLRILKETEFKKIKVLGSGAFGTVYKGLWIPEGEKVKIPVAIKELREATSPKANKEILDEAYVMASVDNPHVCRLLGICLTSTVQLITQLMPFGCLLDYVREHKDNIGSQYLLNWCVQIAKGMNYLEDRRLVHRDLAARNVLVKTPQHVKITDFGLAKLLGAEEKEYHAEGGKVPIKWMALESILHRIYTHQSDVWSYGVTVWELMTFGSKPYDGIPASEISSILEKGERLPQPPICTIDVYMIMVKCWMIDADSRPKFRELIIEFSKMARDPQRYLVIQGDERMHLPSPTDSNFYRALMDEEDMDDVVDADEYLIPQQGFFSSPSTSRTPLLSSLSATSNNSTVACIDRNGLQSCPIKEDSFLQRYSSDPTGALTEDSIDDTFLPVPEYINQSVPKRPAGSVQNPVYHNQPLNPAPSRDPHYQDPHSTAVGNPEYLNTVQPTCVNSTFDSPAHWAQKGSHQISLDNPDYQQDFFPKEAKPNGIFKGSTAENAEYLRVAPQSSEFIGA

SMILES: CC1=C(C/C=C(/C)CCC[C@H](C)CCC[C@H](C)CCCC(C)C)C(=O)c2ccccc2C1=O (single isomer, unassigned) [cis isomer]
- biological activity [1]: little or no biological activity

SMILES: CC1=C(C/C=C(\C)CCC[C@H](C)CCC[C@H](C)CCCC(C)C)C(=O)c2ccccc2C1=O [Vitamin K1, 2-methyl-3-phytyl-1,4-naphthoquinone]
- concentration at which activation of EGFR was seen (EGFR [2]; A431 cells): 1000 µM
- activation (phosphorylation) of EGFR (EGFR [2]; A431 cells): activated
- concentration at which activation was seen, converted to mass concentration (EGFR [2]; A431 cells): about 450 μg/ml
- concentration at which activation of Akt was seen (Akt): 1000 µM

- reversibility of induced EGFR phosphorylation (EGFR [2]; A431 cells, 0.1 mM VK3 1 hour, then VK3-free medium): reversible
- concentration at which activation of EGFR was seen (EGFR [2]; A431 cells): 100 µM
- activation (phosphorylation) of EGFR (EGFR [2]; A431 cells): stimulated; also recorded: activated
- concentration at which activation was seen, converted to mass concentration (EGFR [2]; A431 cells): about 17 μg/ml
- activation of EGFR in the presence of cetuximab (EGFR [2]; Vitamin K3 0.1 and 0.5 mM): activated
- EGFR phosphorylation in mouse skin tissue (EGFR [5]; skin smeared with 30 mM or 100 mM (VK3 in ethanol) x 3 doses every 12 hours, same doses of creams): activates EGFR
- activation of EGFR in normal mouse skin (EGFR [5]; topical application): activated
SMILES: CC1=CC(=O)c2ccccc2C1=O [Vitamin K3, 2-methyl-1,4-naphthoquinone]
- dermatitis on topical administration ([3]; Page et al., 1942): can cause dermatitis
- vesiculation of the skin on topical administration ([3]; Ulbrich, 1961): vesiculation of the skin
- effect on phosphatase activity (phosphatase activity; A431 cells, 0.1 mM VK3 for 1 hour, pNPP substrate): inhibits phosphatase activity; also recorded: inhibiting phosphatase activity
- time after removal at which phosphatase inhibition is reversed (phosphatase activity; A431 cells, reincubation in VK3-free medium): 2 to 3 h
- reversibility of phosphatase inhibition (phosphatase activity; following removal of VK3): reversible
- activation of EGFR in the presence of erlotinib (EGFR [2]; A431 or HN5 cells, serum free medium, erlotinib 2 μM, Vitamin K3 0.01-0.5 mM, 2 hours): prevents the inhibition of EGFR phosphorylation; also recorded: activated
- concentration at which activation of Stat-3 was seen (Stat-3; A431 cells, 2 hours exposure): 100 µM
- activation (phosphorylation) of Stat-3 (Stat-3; A431 cells, 2 hours exposure): stimulated; also recorded: activated
- activation of Stat-3 in the presence of erlotinib (Stat-3; A431 or HN5 cells, erlotinib 2 μM, at 0.1 and 0.5 mM vitamin K3): activated
- activation of Stat-3 in the presence of cetuximab (Stat-3; Vitamin K3 0.1 and 0.5 mM): activated
- decrease of cytotoxicity of the EGFR inhibitor (erlotinib) ([4]; co-incubation with Vitamin K3 50-100 μM, 72 hours, cell counting): 4-6 fold
- concentration at which activation of Akt was seen (Akt): 100 µM
- activation (phosphorylation) of Akt (Akt): stimulated; also recorded: activated
- activation of Akt in the presence of erlotinib (Akt; A431 or HN5 cells, erlotinib 2 μM, at 0.5 mM vitamin K3): activated
- activation of Akt in the presence of cetuximab (Akt; Vitamin K3 0.1 and 0.5 mM): activated
- p-EGFR in skin of mice receiving erlotinib (EGFR [5]; erlotinib P.O. daily, skin smeared with Vitamin K3 15 mM in ethanol BID x 5 days (days 5 to 10)): rescues; also recorded: significant p-EGFR expression

SMILES: CC(C)=CCC/C(C)=C/CC/C(C)=C/CC/C(C)=C/CC/C(C)=C/CC/C(C)=C/CC1=C(C)C(=O)c2ccccc2C1=O [Vitamin K2, 2-methyl-3-hexaprenyl-1,4-naphthoquinone]
- activation (phosphorylation) of EGFR (EGFR [2]; A431 cells): little or no effect
- activation (phosphorylation) of Stat-3 (Stat-3; A431 cells, 2 hours exposure): little or no effect
- activation (phosphorylation) of Akt (Akt): little or no effect

SMILES: C#Cc1cccc(Nc2ncnc3cc(OCCOC)c(OCCOC)cc23)c1 [erlotinib]
- effect of exposure on cells ([4]; A431 cells, erlotinib alone): cell death
